Legend:
barnyardgrass = assay: Test A pre-/postemergence herbicide test; type: in vivo, Echinochloa crus-galli; details: for Plant response rating, Barnyardgrass: 0 to 100 scale
Outline: (§1)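 Formulated compound (non-phytotoxic solvent, surfactant) sprayed pre- onto soil of seeded loam/sand pots or post- onto seedlings at 1–2 leaves; ~10 d greenhouse; 0–100 visual control rating versus untreated.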

pigweed = assay: Test A pre-/postemergence herbicide test; type: in vivo, Amaranthus retroflexus; details: for Plant response rating, Pigweed: 0 to 100 scale
Outline: as §1

corn [1] = assay: Test A pre-/postemergence herbicide test; type: in vivo, Zea mays; details: Postemergence; for Plant response rating, Corn: 125 g ai/ha, 0 to 100 scale, 0 is no effect, 100 is complete control; for Corn plant response rating (0 to 100 scale, 0 is no effect, 100 is complete control): 500 g ai/ha
Outline: as §1

blackgrass = assay: Test C pre-/postemergence herbicide test; type: in vivo, Alopecurus myosuroides; details: for Blackgrass plant response rating: scale 0 to 100, 0 is no effect and 100 is complete control
Description: (§2) Seeds of plant species selected from blackgrass (Alopecurus myosuroides), ryegrass, Italian (Italian ryegrass, Lolium multiflorum), wheat (winter wheat, Triticum aestivum), galium (catchweed bedstraw, Galium aparine), corn (Zea mays), crabgrass, large (large crabgrass, Digitaria sanguinalis), foxtail, giant (giant foxtail, Setaria faberii), johnsongrass (Sorghum halepense), lambsquarters (Chenopodium album), morningglory (Ipomoea coccinea), nutsedge, yellow (yellow nutsedge, Cyperus esculentus), pigweed (Amaranthus retroflexus), ragweed (common ragweed, Ambrosia elatior), soybean (Glycine max), barnyardgrass (Echinochloa crus-galli), oilseed rape (Brassica napus), waterhemp (common waterhemp, Amaranthus rudis), kochia (Kochia scoparia), oat, wild (wild oat, Avena fatua), surinam grass (Brachiaria decumbens), foxtail, green (green foxtail, Setaria viridis), goosegrass (Eleusine indica), bromegrass, downy (downy bromegrass, Bromus tectorum), nightshade (eastern black nightshade, Solanum ptycanthum), cocklebur (common cocklebur, Xanthium strumarium), cupgrass, woolly (woolly cupgrass, Eriochloa villosa), bermudagrass (Cynodon dactylon), sunflower, (common oilseed sunflower, Helianthus annuus), Russian thistle (Salsola kali) and velvetleaf (Abutilon theophrasti) were planted into a blend of loam soil and sand and treated preemergence with test chemicals formulated in a non-phytotoxic solvent mixture which included a surfactant. At the same time, plants selected from these crop and weed species and also barley (winter barley, Hordeum vulgare), […]), chickweed (common chickweed, Stellaria media), deadnettle (henbit deadnettle, Lamium amplexicaule), and canarygrass (littleseed canarygrass, Phalaris minor) were planted in pots containing Redi-Earth® planting medium (Scotts Company, 14111 Scottslawn Road, Marysville, Ohio 43041) comprising spaghnum peat moss, vermiculite, wetting agent and starter nutrients and treated with postemergence applications of test chemicals formulated in the same manner. Plants ranged in height from 2 to 18 cm (1- to 4-leaf stage) for postemergence treatments. Treated plants and controls were maintained in a greenhouse for 13 to 15 days, after which time all species were compared to controls and visually evaluated. Plant response ratings, summarized in Table C, are based on a scale of 0 to 100 where 0 is no effect and 100 is complete control. A dash (-) response means no test result.

corn [2] = assay: Test C pre-/postemergence herbicide test; type: in vivo, Zea mays
Outline: (§3)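 Compound solutions contained surfactant in a non-phytotoxic solvent. These were sprayed onto pots of loam/sand sown with seeds, and onto young plants (2 to 18 cm, 1- to 4-leaf) in sphagnum peat–vermiculite mix. Visual injury scores (0 none, 100 complete control) were recorded after 13 to 15 days.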

lambsquarters = assay: Test C pre-/postemergence herbicide test; type: in vivo, Chenopodium album
Outline: as §3

morningglory = assay: Test C pre-/postemergence herbicide test; type: in vivo, Ipomoea coccinea
Outline: as §3

nutsedge, yellow = assay: Test C pre-/postemergence herbicide test; type: in vivo, Cyperus esculentus
Outline: as §3

soybean = assay: Test C pre-/postemergence herbicide test; type: in vivo, Glycine max
Description: as §2

oilseed rape = assay: Test C pre-/postemergence herbicide test; type: in vivo, Brassica napus
Description: as §2

[3] = 125 g ai/ha, visual rating, 0 no effect, 100 complete control, approximately 10 days, preemergence
[4] = Postemergence, 125 g ai/ha, 0 is no effect, 100 is complete control
[5] = preemergence, 500 g ai/ha, 0 is no effect and 100 is complete control
[6] = Postemergence, 31 g ai/ha, scale 0 to 100 (0 no effect, 100 complete control)
[7] = Postemergence, 62 g ai/ha, scale 0 (no effect) to 100 (complete control)
[8] = Postemergence, 125 g ai/ha, scale 0 to 100 (0 no effect, 100 complete control)
[9] = Postemergence, 250 g ai/ha, scale 0 to 100 (0 no effect, 100 complete control)
[10] = Preemergence, 62 g ai/ha, scale 0 to 100
[11] = Preemergence, 125 g ai/ha, scale 0 to 100 (0 no effect, 100 complete control)
[12] = Preemergence, 31 g ai/ha, scale 0 to 100, 0 is no effect and 100 is complete control
[13] = Preemergence, 62 g ai/ha, scale 0 to 100 (0 no effect, 100 complete control)

O=C1NCC(c2cccc(C(F)(F)F)c2)C1C(=O)Nc1ccc(F)cc1F (racemic) [Compound 207]
Plant response rating, Barnyardgrass (barnyardgrass; [3]): 90
Plant response rating, Barnyardgrass (barnyardgrass; [4]): 80
Barnyardgrass plant response rating (0 to 100 scale, 0 is no effect, 100 is complete control) (barnyardgrass; Postemergence, 500 g ai/ha): 90
Plant response rating, Barnyardgrass (barnyardgrass; [5]): 90
Plant response rating, Pigweed (pigweed; [3]): 0
Plant response rating, Pigweed (pigweed; [4]): 0
Pigweed plant response rating (0 to 100 scale, 0 is no effect, 100 is complete control) (pigweed; Postemergence, 500 g ai/ha): 0
Plant response rating, Pigweed (pigweed; [5]): 20
Plant response rating, Corn (corn [1]): 50
Corn plant response rating (0 to 100 scale, 0 is no effect, 100 is complete control) (corn [1]): 70
Plant response rating, Blackgrass (blackgrass; [6]): 0
Plant response rating, Blackgrass (blackgrass; [7]): 0
Plant response rating, Blackgrass (blackgrass; [8]): 0
Plant response rating, Blackgrass (blackgrass; [9]): 0
Blackgrass plant response rating (blackgrass; Preemergence, 31 g ai/ha): 0
Plant response rating, Blackgrass (blackgrass; [10]): 80
Plant response rating, Blackgrass (blackgrass; [11]): 85
Plant response rating (scale of 0 to 100), Blackgrass (blackgrass; Preemergence, 250 g ai/ha): 90
Plant response rating, Corn (corn [2]; [6]): 0
Plant response rating, Corn (corn [2]; [7]): 0
Plant response rating, Corn (corn [2]; [8]): 0
Plant response rating, Corn (corn [2]; [9]): 5
Corn plant response rating (corn [2]; [12]): 0
Corn plant response rating (corn [2]; [13]): 0
Plant response rating, Corn (corn [2]; [11]): 55
Plant response rating (scale of 0 to 100), Corn (corn [2]; Preemergence, 250 g ai/ha): 30
Plant response rating, Lambsquarters (lambsquarters; [6]): 0
Plant response rating, Lambsquarters (lambsquarters; [7]): 10
Plant response rating, Lambsquarters (lambsquarters; [8]): 35
Plant response rating, Lambsquarters (lambsquarters; [9]): 15
Lambsquarters plant response rating (lambsquarters; [12]): 0
Lambsquarters plant response rating (lambsquarters; [13]): 0
Plant response rating, Lambsquarters (lambsquarters; [11]): 60
Plant response rating (scale of 0 to 100), Lambsquarters (lambsquarters; Preemergence, 250 g ai/ha): 70
Plant response rating, Morningglory (morningglory; [6]): 5
Plant response rating, Morningglory (morningglory; [7]): 5
Plant response rating, Morningglory (morningglory; [8]): 5
Plant response rating, Morningglory (morningglory; [9]): 20
Morningglory plant response rating (morningglory; [12]): 0
Morningglory plant response rating (morningglory; [13]): 0
Plant response rating, Morningglory (morningglory; [11]): 0
Plant response rating (scale of 0 to 100), Morningglory (morningglory; Preemergence, 250 g ai/ha): 0
Plant response rating, Nutsedge, Yellow (nutsedge, yellow; [6]): 10
Plant response rating, Nutsedge, Yellow (nutsedge, yellow; [7]): 0
Plant response rating, Nutsedge, Yellow (nutsedge, yellow; [8]): 0
Plant response rating, Nutsedge, Yellow (nutsedge, yellow; [9]): 0
Nutsedge, Yellow plant response rating (nutsedge, yellow; [12]): 0
Nutsedge, Yellow plant response rating (nutsedge, yellow; [13]): 0
Plant response rating, Nutsedge, Yellow (nutsedge, yellow; [11]): 0
Plant response rating (scale of 0 to 100), Nutsedge, Yellow (nutsedge, yellow; Preemergence, 250 g ai/ha): 0
Plant response rating, Soybean (soybean; [6]): 0
Plant response rating, Soybean (soybean; [7]): 5
Plant response rating, Soybean (soybean; [8]): 5
Plant response rating, Soybean (soybean; [9]): 5
Soybean plant response rating (soybean; [12]): 0
Soybean plant response rating (soybean; [13]): 0
Plant response rating, Soybean (soybean; [11]): 0
Plant response rating (scale of 0 to 100), Soybean (soybean; Preemergence, 250 g ai/ha): 0
Plant response rating, Oilseed Rape (oilseed rape; [6]): 0
Plant response rating, Oilseed Rape (oilseed rape; [7]): 0
Plant response rating, Oilseed Rape (oilseed rape; [8]): 10
Plant response rating, Oilseed Rape (oilseed rape; [9]): 30
Oilseed Rape plant response rating (oilseed rape; [12]): 0
Oilseed Rape plant response rating (oilseed rape; [13]): 0
Plant response rating, Oilseed Rape (oilseed rape; [11]): 0
Plant response rating (scale of 0 to 100), Oilseed Rape (oilseed rape; Preemergence, 250 g ai/ha): 80

O=C1NCC(c2cccc(C(F)F)c2)C1C(=O)Nc1cccc(F)c1F (racemic) [Compound 211]
Plant response rating, Barnyardgrass (barnyardgrass; [3]): 80
Plant response rating, Barnyardgrass (barnyardgrass; [4]): 90
Barnyardgrass plant response rating (0 to 100 scale, 0 is no effect, 100 is complete control) (barnyardgrass; Postemergence, 500 g ai/ha): 90
Plant response rating, Barnyardgrass (barnyardgrass; [5]): 90
Plant response rating, Pigweed (pigweed; [3]): 20
Plant response rating, Pigweed (pigweed; [4]): 0
Pigweed plant response rating (0 to 100 scale, 0 is no effect, 100 is complete control) (pigweed; Postemergence, 500 g ai/ha): 50
Plant response rating, Pigweed (pigweed; [5]): 70
Plant response rating, Corn (corn [1]): 30
Corn plant response rating (0 to 100 scale, 0 is no effect, 100 is complete control) (corn [1]): 70
Blackgrass plant response rating (blackgrass; Preemergence, 31 g ai/ha): 0
Plant response rating, Blackgrass (blackgrass; [10]): 20
Plant response rating, Blackgrass (blackgrass; [11]): 85
Plant response rating (scale of 0 to 100), Blackgrass (blackgrass; Preemergence, 250 g ai/ha): 90
Corn plant response rating (corn [2]; [12]): 0
Corn plant response rating (corn [2]; [13]): 25
Plant response rating, Corn (corn [2]; [11]): 0
Plant response rating (scale of 0 to 100), Corn (corn [2]; Preemergence, 250 g ai/ha): 80
Lambsquarters plant response rating (lambsquarters; [12]): 100
Lambsquarters plant response rating (lambsquarters; [13]): 85
Plant response rating, Lambsquarters (lambsquarters; [11]): 100
Plant response rating (scale of 0 to 100), Lambsquarters (lambsquarters; Preemergence, 250 g ai/ha): 100
Morningglory plant response rating (morningglory; [12]): 0
Morningglory plant response rating (morningglory; [13]): 0
Plant response rating, Morningglory (morningglory; [11]): 0
Plant response rating (scale of 0 to 100), Morningglory (morningglory; Preemergence, 250 g ai/ha): 0
Nutsedge, Yellow plant response rating (nutsedge, yellow; [12]): 0
Nutsedge, Yellow plant response rating (nutsedge, yellow; [13]): 0
Plant response rating, Nutsedge, Yellow (nutsedge, yellow; [11]): 0
Plant response rating (scale of 0 to 100), Nutsedge, Yellow (nutsedge, yellow; Preemergence, 250 g ai/ha): 10
Soybean plant response rating (soybean; [12]): 0
Soybean plant response rating (soybean; [13]): 0
Plant response rating, Soybean (soybean; [11]): 5
Plant response rating (scale of 0 to 100), Soybean (soybean; Preemergence, 250 g ai/ha): 0
Oilseed Rape plant response rating (oilseed rape; [12]): 0
Oilseed Rape plant response rating (oilseed rape; [13]): 35
Plant response rating, Oilseed Rape (oilseed rape; [11]): 90
Plant response rating (scale of 0 to 100), Oilseed Rape (oilseed rape; Preemergence, 250 g ai/ha): 90
